The values that follow are results of earlier work, collected in US20040266704A1, “Method comprising irinotecan for treatment of breast cancer” (priority 2003, published 2004).

One data set deals with recurrent breast cancer. To be noted: intravenous; four cases, previous chemotherapy including doxorubicin.
For data set [1], the system named is advanced and metastatic breast cancer pretreated with doxorubicin and docetaxel. The settings on record: intravenous.
The test system of data set [2] is advanced or recurrent breast cancer. The settings on record: intravenous drip-infusion; patients with advanced breast cancer.
Data set [3] has as its system refractory advanced breast cancer. To be noted: IV, two schedules; 103 patients who failed an anthracycline, a taxane or both; preliminary data.
A further data set relates to advanced breast cancer. The settings on record: intravenous; patients with prior endocrine therapy and prior chemotherapy including adriamycin or other anthracyclines.
The test system of data set [4] is anthracycline resistant metastatic breast cancer. The settings on record: intravenous salvage therapy; twelve patients, prior chemotherapy including an anthracycline.

For the compound `CCc1c2c(nc3ccc(OC(=O)N4CCC(N5CCCCC5)CC4)cc13)-c1cc3c(c(=O)n1C2)COC(=O)[C@]3(O)CC` [CPT-11, [1,4′-Bipiperidine]-1′-carboxylic acid (4S)-4,11-diethyl-3,4,12,14-tetrahydro-4-hydroxy-3,14-dioxo-1H-pyrano[3′,4′:6,7]indolizino[1,2-b]quinolin-9-yl ester], the “clinical efficacy against advanced or recurrent breast cancer” value with recurrent breast cancer is on record as “effective agent”; in data set [2], “effective”. In addition, the “clinical efficacy in the salvage setting” value in data set [1] is “inactive”. The toxicity profile result in data set [3] is reported as “acceptable toxicity profile”. Besides, the “clinical efficacy in advanced breast cancer” value with advanced breast cancer is on record as “promising drug”. The “treatment results in metastatic breast cancer” value in data set [4] is “satisfactory”.
